Test results as given in patent US20040115626A1, “Human pgc-1 promoter” (priority 2000, published 2004).

How the values were obtained:
hPGC-1 promoter = hPGC-1 promoter luciferase reporter assay in transiently transfected L6 cells; type: cell-based; details: for activity at 1 µM: 1 μM compound; for activity at 1 µM / activity at 5 µM / activity at 25 µM: reporter vector phPGC1(2.2)Luc, luciferase activity relative to no compound; for activity at 5 µM: 5 μM compound; for activity at 25 µM: 25 μM compound; for promoter activating ability relative to the case of adding no compound: at compound final concentration of 1 μM, 5 μM or 25 μM, phPGC1(2.2)Luc
Protocol: Various reporter vectors shown in FIG. 1 were transiently transfected into L6 cells. Specifically, L6 cells were cultured in a tissue culture dish having a diameter of 10 cm and at the time when it was reached 50% confluent, 5 μg of the above plasmid and 1.5 μg of a plasmid pCH110 containing β-galactosidase gene controlled by β-actin promoter were used in combination in order to standardize gene transfection efficiency and the plasmids were introduced into the cells using FuGENE™6 (BOEHRINGER MANNHEIM, USA, 1814 443). After 24 hours, the cells were transferred into a 96-well culture dish, followed by additional 6 hours of culture. From the reports until now, since it is known that 9-cis-RETINOIC ACID (one of vitamin A acids) increases the expression of PGC-1 gene derived from mouse in cells (Cell, 92, 829-839 (1998)), 9-cis-RETINOIC ACID (SIGMA, USA, R4643) having a final concentration of 1 μM was added and the mixture was treated for 24 hours. Then, the cells were dissolved with a cell dissolving liquid LCβ (Toyo Ink, Japan) and luciferase activity thereof was measured using a PicaGene Luminescent Kit (Toyo Ink, Japan, 309-04321). By the way, all the activity measurements were carried out three times per measurement and each experiment was repeated at least twice to confirm the reproducibility.
Each reporter activity was standardized by β-galactosidase activity and expressed by a relative value wherein the value in the case of adding no compound was regarded as 1. In L6 cells, hPGC-1 reporter was increased a maximum of about 2.5 times by the treatment with 9-cis-RETINOIC ACID and thus a result consistent with the report that the expression of PGC-1 gene derived from mouse was enhanced by 9-cis-RETINOIC ACID was obtained.
Using the reporter vector phPGC1(2.2)Luc in the method described in Example 5, screening of a compound stimulating an hPGC-1 promoter activity was carried out wherein commercially available compounds were used as test compounds. […] By the way, Compound B, Compound E and Compound G are commercially available as the code number 4K@UH1-646 of INTERBIOSCREEN, as the code number MS0447 of MARLIN and as the code number A1773/0075171 of ZELINSKY, respectively and are 5-(4-fluorobenzylidene)-2,4-thiazolidinedione, 5-(4-bromobenzylidene)-2,4-thiazolidinedione, 2-(3-aminophenyl)-5-benzoyl-(1H)-benzimidazole, respectively.

L6 cells = assay: Measurement of mitochondrial enzymatic activity (WST-1 mitochondrial dehydrogenase colorimetric assay) in L6 cells; type: cell-based, rat; details: for activity at 1 µM / activity at 5 µM / activity at 25 µM: Rattus norvegicus, 24 hours, relative to no compound
Protocol: Rat myoblast L6 (ATCC, CRL-1458) was maintained Dulbecco's modified Eagle medium containing 10% fetal bovine serum (GIBCO BRL, USA, 11965-092) and cultured in a wet air containing 5% CO2 at 37° C.
For the investigation of mitochondrial enzymatic activity of cells, a reagent WST-1 (DOJINDO, 342-06451) was used, which enabled the measurement of mitochondrial dehydrogenase activity of living cells by colorimetric assay method. Specifically, L6 cells were cultured in a tissue culture dish having a diameter of 10 cm and after reached confluent, the cells were transferred into a 96-well tissue culture dish. At that time, the medium was changed to Dulbecco's modified Eagle medium containing no Phenol Red (GIBCO BRL, USA, 21063-029). […] After the addition of each compound and 24 hours of treatment, the medium containing the compound was sucked and discarded and thereto were added 100 μl of Dulbecco's modified Eagle medium containing no Phenol Red and no fetal bovine serum and 10 μL of PBS containing 5 mM WST-1 and 0.2 mM 1-Methoxy PMS (DOJINDO, 345-04001). After 4 hours of reaction at 37° C., absorbance was measured at a measuring wavelength of 450 nm. In this regard, all the activity measurements were carried out three times per measurement and each experiment was repeated at least twice to confirm the reproducibility.
Tables 2(a) and 2(b) show the results of 9-cis-RETINOIC ACID and the compounds obtained in Example 6, respectively. Each value was expressed by a relative value wherein the absorbance of the sample containing no cell was subtracted as a background from each absorbance and the value in the case of adding no compound was regarded as 1. […] As mentioned above, it was shown that substances stimulating an hPGC-1 promoter activity have an action to activate mitochondrial enzymes.

| Compound | increase of hPGC-1 reporter activity (maximum) (hPGC-1 promoter; 1 μM, 24 hours, normalized with β-galactosidase, no compound = 1, maximum over the reporter vectors) | reporter activity (hPGC-1 promoter; 1 μM, 24 hours, reporter vector hPGC1(0.1)Luc) | activity enhancement (9-cis-RETINOIC ACID responsibility) of reporter (hPGC-1 promoter; 1 μM, 24 hours, reporter vectors hPGC1(0.2)Luc to hPGC1(5.2)Luc) | mitochondrial enzymatic activity (statement in words) (L6 cells; 24 hours treatment, Dunnett test) | activity at 1 µM (hPGC-1 promoter) [%] | activity at 5 µM (hPGC-1 promoter) [%] | activity at 25 µM (hPGC-1 promoter) [%] | promoter activating ability relative to the case of adding no compound (hPGC-1 promoter) | activity at 1 µM (L6 cells) [%] | activity at 5 µM (L6 cells) [%] | activity at 25 µM (L6 cells) [%] |
| --- | --- | --- | --- | --- | --- | --- | --- | --- | --- | --- | --- |
| CC1=C(/C=C/C(C)=C\C=C\C(C)=C\C(=O)O)C(C)(C)CCC1 [9-cis-RETINOIC ACID, reference compound] | about 2.5 times | completely lost | strongly observed | increased mitochondrial enzymatic activity with a significant difference | – | – | – | – | – | – | – |
| O=C1NC(=O)C(=Cc2ccc(F)cc2)S1 [Compound B, 5-(4-fluorobenzylidene)-2,4-thiazolidinedione] | – | – | – | – | 160 | 203 | 202 | more than twice | 94 | 121 | 175 |
| O=C1NC(=O)C(=Cc2ccc(Br)cc2)S1 [Compound E, 5-(4-bromobenzylidene)-2,4-thiazolidinedione] | – | – | – | – | 146 | 208 | 157 | more than twice | 102 | 141 | 285 |
| Nc1cccc(-c2nc3cc(C(=O)c4ccccc4)ccc3[nH]2)c1 [Compound G, 2-(3-aminophenyl)-5-benzoyl-(1H)-benzimidazole] | – | – | – | – | 207 | 175 | 91 | more than twice | 80 | 102 | 176 |
